# Literature values as cited in patent US4316892A, “2,6-C-Dimethyltyrosine^1 -D-amino acid^2 -ε-amino caproic and γ aminobutyric acid^5 derivatives of methionine enkephalin” (G. D. Searle & Co., priority 1980, dated 1982).
# Tests used:
# brain opiate receptor = conditions: partially purified brain opiate receptor; Bradbury et al.
# [1] = bioassays for opiate activity
# [2] = injected directly into the brain of the rat; Belluzi et al.
substance,measurement,setting,value
methionine enkephalin,binding to brain opiate receptor sites,brain opiate receptor,binds stereospecifically
same,opiate activity,[1],highly active
same,analgesic activity,[2],"weak, fleeting analgesic activity"
